According to patent US8791132B2, “Compounds and methods for treatment of hypertension” (Medivation Technologies, Inc., priority 2011, dated 2014):
Several values for one entry are separate records, joined by “and”; a condition that tells them apart may be missing. Equal values may be shown once. Read-outs that look alike come from different tables or passages of the source.

Assays:
[1] = target: T1, rat adrenergic α1B receptor (Rattus norvegicus, UniProt P15823); test: Radioligand binding, adrenergic α1B ([3H]Prazosin); conditions: [3H]Prazosin; for Percentage inhibition of ligand binding, Adrenergic α1B (0.1 μM) / Percentage inhibition of ligand binding, Adrenergic α1B: 0.1 µM
T1 construct: rat adrenergic α1B receptor obtained from Wistar Rat liver; from tissue; host or cells: Wistar rat liver
T1 sequence (P15823 1-515): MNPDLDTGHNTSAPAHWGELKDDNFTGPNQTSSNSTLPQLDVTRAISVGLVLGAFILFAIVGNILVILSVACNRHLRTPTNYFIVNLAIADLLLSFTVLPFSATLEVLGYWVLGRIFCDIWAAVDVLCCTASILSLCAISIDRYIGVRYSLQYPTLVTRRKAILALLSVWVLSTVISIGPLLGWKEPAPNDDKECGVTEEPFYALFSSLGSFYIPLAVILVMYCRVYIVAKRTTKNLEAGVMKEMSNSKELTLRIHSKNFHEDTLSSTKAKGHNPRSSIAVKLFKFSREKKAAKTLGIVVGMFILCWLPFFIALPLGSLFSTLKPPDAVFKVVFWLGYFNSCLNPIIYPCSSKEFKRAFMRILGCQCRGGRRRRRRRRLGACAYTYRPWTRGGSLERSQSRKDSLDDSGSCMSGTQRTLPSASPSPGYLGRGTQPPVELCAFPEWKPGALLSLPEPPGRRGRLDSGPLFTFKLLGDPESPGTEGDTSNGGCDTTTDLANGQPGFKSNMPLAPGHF
Summary of the method: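 Incubation ran 60 min at 25 °C in Tris-HCl buffer (50 mM, pH 7.4, 0.5 mM EDTA) with Wistar rat liver α1B receptor. 10 μM phentolamine set non-specific binding.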

[2] = target: T2, human recombinant adrenergic α2A receptor (Homo sapiens, UniProt P08913); test: Radioligand binding, adrenergic α2A ([3H]MK-912); conditions: for Percentage inhibition of ligand binding, Adrenergic α2A (0.1 μM) / Percentage inhibition of ligand binding, Adrenergic α2A: 0.1 µM
T2 construct: expressed in transfected cells; host or cells: insect Sf9 cells
T2 sequence (P08913 1-465): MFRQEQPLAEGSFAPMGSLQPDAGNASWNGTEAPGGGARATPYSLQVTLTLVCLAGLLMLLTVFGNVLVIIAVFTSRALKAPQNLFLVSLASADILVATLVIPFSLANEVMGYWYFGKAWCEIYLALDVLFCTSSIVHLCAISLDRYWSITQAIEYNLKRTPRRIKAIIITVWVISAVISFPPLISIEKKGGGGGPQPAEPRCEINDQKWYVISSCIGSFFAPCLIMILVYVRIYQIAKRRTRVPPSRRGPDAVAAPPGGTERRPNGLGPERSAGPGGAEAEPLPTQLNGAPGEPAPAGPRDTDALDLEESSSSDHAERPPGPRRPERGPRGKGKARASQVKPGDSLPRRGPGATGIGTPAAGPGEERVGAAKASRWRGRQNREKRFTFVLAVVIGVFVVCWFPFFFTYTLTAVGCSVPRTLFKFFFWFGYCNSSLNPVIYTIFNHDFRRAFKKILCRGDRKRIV
Summary of the method: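 Sf9-expressed receptor was incubated with compound for 60 min at 25 °C in modified Tris-HCl buffer, pH 7.4. Nonspecific binding was taken as that remaining with 10 μM WB-4101.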

[3] = target: T3, human recombinant adrenergic α2B receptor (Homo sapiens, UniProt P18089); test: Radioligand binding, adrenergic α2B ([3H]Rauwolscine); conditions: for Percentage inhibition of ligand binding, Adrenergic α2B / Percentage inhibition of ligand binding, Adrenergic α2B (0.03 μM): 0.03 µM; for Ki: read-out: Ki α2B
T3 construct: expressed in transfected cells; host or cells: CHO-K1
T3 sequence (P18089 1-450): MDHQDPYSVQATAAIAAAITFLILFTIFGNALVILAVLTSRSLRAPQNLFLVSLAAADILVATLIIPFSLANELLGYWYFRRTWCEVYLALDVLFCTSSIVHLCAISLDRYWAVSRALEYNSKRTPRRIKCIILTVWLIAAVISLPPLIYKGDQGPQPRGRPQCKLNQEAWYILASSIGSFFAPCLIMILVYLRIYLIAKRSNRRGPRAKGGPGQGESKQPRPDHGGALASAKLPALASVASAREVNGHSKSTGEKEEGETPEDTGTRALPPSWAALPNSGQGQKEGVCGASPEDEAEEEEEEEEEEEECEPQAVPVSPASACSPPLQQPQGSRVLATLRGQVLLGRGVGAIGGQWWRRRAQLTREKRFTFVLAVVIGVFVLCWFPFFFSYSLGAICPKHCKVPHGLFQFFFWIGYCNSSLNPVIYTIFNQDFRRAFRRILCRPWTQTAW
Summary of the method: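 Readout: percent inhibition of specific [3H]Rauwolscine binding, measured by filtration and counting. Conditions: CHO-K1 cell-expressed receptor, 2.5 nM radioligand, 60 min, 25° C, Tris-HCl pH 7.4 buffer with MgCl2, EDTA, BSA. Non-specific binding: 10 μM Prazosin.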

[4] = read-out: Percentage inhibition of ligand binding, Adrenergic α1B (0.1 μM), compound at 0.1 μM, repeat datapoints each shown
[5] = read-out: Percentage inhibition of ligand binding, Adrenergic α2A (0.1 μM), compound at 0.1 μM, [3H]MK-912, repeat datapoints each shown
[6] = read-out: Percentage inhibition of ligand binding, Adrenergic α2B (0.03 μM), compound at 0.03 μM, [3H]Rauwolscine, repeat datapoints each shown
[7] = compound at 0.1 μM, repeat datapoints each shown
[8] = compound at 0.1 μM, [3H]MK-912, repeat datapoints each shown
[9] = compound at 0.1 μM, repeat assays, each datapoint shown, read-out: Percentage inhibition of ligand binding, Adrenergic α1B
[10] = compound at 0.1 μM, [3H]MK-912, repeat assays, each datapoint shown
[11] = compound at 0.03 μM, [3H]Rauwolscine, repeat assays, each datapoint shown, read-out: Percentage inhibition of ligand binding, Adrenergic α2B
[12] = compound at 0.1 μM, [3H]MK-912, repeat assays, each datapoint shown, read-out: Percentage inhibition of ligand binding, Adrenergic α2A
[13] = compound at 0.1 μM, repeat assays, each datapoint shown
[14] = compound at 0.03 μM, [3H]Rauwolscine, repeat assays, each datapoint shown
[15] = compound at 0.03 μM, [3H]Rauwolscine, repeat datapoints each shown

Cc1cnc2c(c1)c1c(n2CCc2ccncc2)CCN(C)C1 [II-240]
inhibition at 0.1 µM [1, 4]: 57% | inhibition at 0.1 µM [2, 5]: 7% | inhibition at 0.03 µM [3, 6]: 53%

C=C(Cn1c2c(c3cc(C)ccc31)CN(C)CC2)c1cccnc1 [compound 132]
inhibition at 0.1 µM [1, 4]: 28% | inhibition at 0.1 µM [2, 5]: 19% | inhibition at 0.03 µM [3, 6]: 91%

Cc1cnc2c(c1)c1c(n2CCc2ccc(C)nc2)CCN2CCCCC12 (single isomer, unassigned) [IV-8a]
Percentage inhibition of ligand binding, Adrenergic α1B (0.1 μM) [1, 7]: 49% | Percentage inhibition of ligand binding, Adrenergic α2A (0.1 μM) [2, 8]: 7% | inhibition at 0.03 µM [3, 6]: 4%

CC(O)(Cn1c2c(c3cc(Cl)ccc31)CNCC2)c1ccncn1 (single isomer, unassigned) [42a, 1-(8-chloro-1,2,3,4-tetrahydro-pyrido[4,3-b]indol-5-yl)-2-pyrimidin-4-yl-propan-2-ol]
inhibition at 0.1 µM [1, 9]: 15% | Percentage inhibition of ligand binding, Adrenergic α2A [2, 10]: 3% | inhibition at 0.03 µM [3, 11]: 29%

Cc1ccc2c(c1)c1c(n2CC(=O)c2cc[n+]([O-])cc2)CCN(C)C1 [compound 68]
inhibition at 0.1 µM [1, 9]: 2% | inhibition at 0.1 µM [2, 12]: 1% | inhibition at 0.03 µM [3, 11]: 4%

Cc1ccc2c(c1)c1c(n2CC(OC(=O)C(C)C)c2ccncc2)CCN(C)C1 (single isomer, unassigned) [54a, 2-(1,2,3,4-tetrahydro-2,8-dimethylpyrido[4,3-b]indol-5-yl)-1-(pyridin-4-yl)ethyl isobutyrate]
Percentage inhibition of ligand binding, Adrenergic α1B [1, 13]: 39% | Percentage inhibition of ligand binding, Adrenergic α2A [2, 10]: 30% | inhibition at 0.03 µM [3, 11]: 105%

Cc1cnc2c(c1)c1c(n2CC(O)c2ccncc2)CCN(C)C1 (single isomer, unassigned) [55b, 2-(3,6-dimethyl-5,6,7,8-tetrahydro-1,6,9-triaza-fluoren-9-yl)-1-pyridin-4-yl-ethanol]
Percentage inhibition of ligand binding, Adrenergic α1B [1, 13]: 57% | Percentage inhibition of ligand binding, Adrenergic α2A [2, 10]: 7% | Percentage inhibition of ligand binding, Adrenergic α2B [3, 14]: 67%

Cc1ccc2c(c1)c1c(n2CC(O)c2cc[n+]([O-])cc2)CCN(C)C1 (stereo not drawn) [69b]
Percentage inhibition of ligand binding, Adrenergic α1B [1, 13]: 8% | Percentage inhibition of ligand binding, Adrenergic α2A [2, 10]: 7% | Percentage inhibition of ligand binding, Adrenergic α2B [3, 14]: 19%

CN1CCc2c(c3cc(Cl)ccc3n2CC(C)(O)c2cccnc2)C1 (single isomer, unassigned) [31a]
inhibition at 0.03 µM ([1]; compound at 0.03 μM, repeat assays, each datapoint shown, read-out: Percentage inhibition of ligand binding, Adrenergic α1B): 16% | Percentage inhibition of ligand binding, Adrenergic α1B [1, 13]: 28% | inhibition at 0.1 µM [1, 9]: 25% | Ki [2]: 167 nM | inhibition at 0.03 µM ([2]; compound at 0.03 μM, [3H]MK-912, repeat assays, each datapoint shown, read-out: Percentage inhibition of ligand binding, Adrenergic α2A): 11% | Percentage inhibition of ligand binding, Adrenergic α2A [2, 10]: 27% | inhibition at 0.1 µM [2, 12]: 19% | Percentage inhibition of ligand binding, Adrenergic α2B [3, 14]: 97% | inhibition at 0.03 µM [3, 11]: 93% | Ki [3]: 1.58 nM

Cc1ccc2c(c1)c1c(n2CC(O)c2ccncc2)CC2CCCN2C1 (single isomer, unassigned) [76c]
Percentage inhibition of ligand binding, Adrenergic α1B [1, 13]: 33% | Percentage inhibition of ligand binding, Adrenergic α2A [2, 10]: 5% | Percentage inhibition of ligand binding, Adrenergic α2B [3, 14]: 35%

Cc1ccc2c(c1)c1c(n2CC(OC(=O)N(C)C)c2ccncc2)CCN(C)C1 (stereo not drawn) [compound 141, N,N-dimethyl-carbamic acid 2-(2,8-dimethyl-1,2,3,4-tetrahydro-pyrido[4,3-b]indol-5-yl)-1-pyridin-4-yl-ethyl ester]
inhibition at 0.1 µM [1, 4]: 23% | Percentage inhibition of ligand binding, Adrenergic α2A (0.1 μM) [2, 8]: 5% | inhibition at 0.03 µM [3, 6]: 76%

CN1CCc2c(c3ccc(Cl)cc3n2CC(O)c2ccncc2)C1 (single isomer, unassigned) [53b, 2-(7-chloro-2-methyl-3,4-dihydro-1H-pyrido[4,3-b]indol-5(2H)-yl)-1-(pyridin-4-yl)ethanol]
Percentage inhibition of ligand binding, Adrenergic α1B [1, 13]: 14% | Percentage inhibition of ligand binding, Adrenergic α2A [2, 10]: 12% | Percentage inhibition of ligand binding, Adrenergic α2B [3, 14]: 85%

Cc1ccc2c(c1Cl)c1c(n2CC(C)(O)c2cccnc2)CCN(C)C1 (single isomer, unassigned) [II-124b, 1-(9-chloro-2,8-dimethyl-3,4-dihydro-1H-pyrido[4,3-b]indol-5(2H)-yl)-2-(pyridin-3-yl)propan-2-ol]
Percentage inhibition of ligand binding, Adrenergic α1B (0.1 μM) [1, 7]: 10% | Percentage inhibition of ligand binding, Adrenergic α2A (0.1 μM) [2, 8]: 7% | Percentage inhibition of ligand binding, Adrenergic α2B (0.03 μM) [3, 15]: 18%

CN1CCc2c(c3ccc(C(F)(F)F)cc3n2CC(O)c2cccnc2)C1 (single isomer, unassigned) [40b]
Percentage inhibition of ligand binding, Adrenergic α1B [1, 13]: −2% | Percentage inhibition of ligand binding, Adrenergic α2A [2, 10]: 13% | Percentage inhibition of ligand binding, Adrenergic α2B [3, 14]: 29%

CN1CCc2c(c3cc(C(F)(F)F)ccc3n2CC(C)(O)c2cccnc2)C1 (single isomer, unassigned) [174a]
inhibition at 0.1 µM [1, 4]: 13% | Percentage inhibition of ligand binding, Adrenergic α2A (0.1 μM) [2, 8]: 22% | Percentage inhibition of ligand binding, Adrenergic α2B (0.03 μM) [3, 15]: 62% and 71% | Ki [3]: 7.91 nM | inhibition at 0.1 µM ([3]; read-out: Percentage inhibition of ligand binding, Adrenergic α2B (0.1 μM), compound at 0.1 μM, [3H]Rauwolscine, repeat datapoints each shown): 86%

CC(O)(Cn1c2c(c3cc(Cl)ccc31)C1CCCN1CC2)c1cccnc1 (stereo not drawn) [II-130, 1-(10-chloro-2,3,5,6-tetrahydro-1H-indolizino[7,8-b]indol-7(11cH)-yl)-2-(pyridin-3-yl)propan-2-ol]
Percentage inhibition of ligand binding, Adrenergic α1B (0.1 μM) [1, 7]: 43% | Percentage inhibition of ligand binding, Adrenergic α2A (0.1 μM) [2, 8]: 41% | Percentage inhibition of ligand binding, Adrenergic α2B (0.03 μM) [3, 15]: 97%
